Assay results taken from US4937232A, “Inhibition of protein kinase C by long-chain bases” (priority 1988, dated 1990).
“Also recorded” adds a separate entry of the source. Where two headings read alike, the source gives them in different places.

What was measured:
[1] = tested on: human neutrophils; assay: Oxygen consumption (oxidative burst) of human neutrophils; type: cell-based; conditions: for IC50: read-out: Concentration required for 50% inhibition; for RATE of oxygen consumption, NO SPHINGANINE: activator alone
From the text: Human neutrophils were obtained by continuous flow leukapheresis from normal adults. Residual erythrocytes were removed by hypotonic lysis with a resulting purity of >95% neutrophils. Alternatively peripheral blood was obtained by phlebotomy and neutrophils were isolated by HESPAN (6% Hetastarch, 0.9% NaCl) sedimentaion of erythrocytes, centrifugation through lymphocyte separation medium (9.4% sodium diatrizoate, 6.2% Ficoll), and hypotonic lysis of residual erythrocytes. Isolated cells were resuspended in phosphate buffered saline (PBS)-glucose, containing 0.6 mM CaCl2, 2.6 mM KCl, 1.5 mM KH2 PO4, 0.5 mM MgCl2, 136 mM NaCl, 8 mM Na2 HPO4, 5.5 mM glucose.
Oxygen consumption was measured using a Clark-type electrode with YSI model 53 oxygen monitor. Assays were conducted at 37° C. with 6.5×10^6 cells per ml with a total volume of either 2.5 ml or 4 ml. Effectors were injected into the electrode chamber using a Hamilton syringe. Initial slopes after the addition of the stimuli were used for rate calculations. For activators with a lag prior to the onset of the oxidative burst, maximal rates following the lag were used.

[2] = tested on: protein kinase C; assay: Triton X-100 mixed micellar assay for protein kinase C activity; type: biochemical, rat; conditions: mixed micellar assay
Protocol: Protein kinase C was partially purified from rat brain as described by Hanrun et al (J. Biol. Chem., 260, 10043, 1985), which is hereby incorporated by reference.
Protein kinase C was assayed with Triton X-100 mixed micelles as described by Hanrun et al, (ibid.), Sphingosine was dried down with the lipid cofactors.

[3] = tested on: HL-60 cells; assay: PMA-induced adherence (attachment) of HL-60 cells; type: cell-based, human; conditions: for inhibition of PMA-induced attachment: 8 nM PMA
Protocol: Cells were centrifuged at 600 g for 3 min, and added at 1×10^5 cells per well in 12-well culture dishes. Medium, PMA, and long-chain bases (prepared as the 1:1 molar complex with fatty acid-free bovine serum albumin) at the indicated concentrations were added for a total volume of 2.0 ml. After the desired times, the cells in suspension were counted and checked for viability (trypan blue exclusion) with a hemacytometer. The attached cells were quantitated by measuring DNA content according to the method of West et al (Anal. Biochem., 147, 289-295, 1985) and by assaying for acid phosphatase according to the method of Schnyder (J. Exp. Med., 148, 434-445, 1978).

[4] = biological target: protein kinase C; assay: Mixed micellar protein kinase C activity assay for lysosphingolipids (Table VI); type: biochemical; conditions: for Inhibition of Protein Kinase C, concentration giving 50% inhibition, (mol %): 0.3% Triton X-100, 1 mol % = 43 μM; for IC50: 0.3% Triton X-100 mixed micelles, 2 mol % dioleoylglycerol, read-out: Inhibition of Protein Kinase C, concentration giving 50% inhibition; for IC50 / inhibition of protein kinase C activity: 6 mol % phosphatidylserine; for inhibition of protein kinase C activity: 2 mol % sn-1,2-dioleoylglycerol, 100 μM Ca2+
Protocol: (§1) TABLE VI: Inhibition of protein kinase C activity and phorbol-dibutyrate binding by lysosphingolipids. […] The remaining two columns show the observed effects of the lysosphingolipids of protein kinase C activity and phorbol diester binding in vitro and in human platelets. Lysogangliosides were prepared from their parental gangliosides by hydrolysis in methanolic KOH esentially as described by Neuenhofer et al. in Bioch. 24, 525, 1985. During this preparation, with approximately 90-95% conversion, the N-acetate of N-acetylneuraminic acid is partially hydrolyzed. Fatty acids were partitioned into heptane after acidification of the methanolic reaction mixture. Galactosylsphingosine, glucosylsphingosine, and lactosylsphingosine were prepared as previously described for galactosylsphingosine (Radin, Lipids 9, 358, 1974) Sphingosylphosphorylcholine was prepared by hydrolysis in HCl-butanol (Kaller, Biochemische Zeitschrift 334, 451, 1961). The purity of the lyso derivatives (greater than 90%) was checked by thin layer chromatography (TLC) on silica gel H plates developed in chloroform/methanol/2N NH4 OH (65/35/9) and visualized by ninhydrin reaction for N-lyso compounds, by α-naphthol/sulfuric acid for both gangliosides and lysogangliosides,and by a phospholipid spray for sphingosylphosphorylcholine. Lysosphingolipids were quantitated by reaction of the amine group with trinitrobenzenesulfonate. Gangliosides and lysosphingolipids were also quantitated by reaction with anthrone. The lysosphingolipids were then studied for their effect on protein kinase C activity. Protein kinase C was purified to near homogeneity by the method of Wolf et al. (J. Biol. Chem. 260, 15718, 1985), and activity was measured using a mixed micellar assay (described herein). Lysosphingolipids were added directly in aqueous solution, and allowed to equilibrate with the Triton X-100 (0.3% w/v) mixed micelles containing 6 mol % phosphatidylserine and 2 mol % dioleoylglycerol. […] Phorbol-dibutyrate binding was measured in a mixed micellar assay. Lysosphingolipids inhibited phorbol-dibutyrate binding to protein kinase C in the presence of Triton X-100 mixed micelles containing 20 mol % phosphatidylserine. […] The difference is related to the higher concentration of phosphatidylserine used in the binding assay, as both activity and binding show a high cooperative dependence on phosphatidylserine, which modulates the inhibition by lysosphingolipids. Phorbol-dibutyrate binding to human platelets and 40 kDa phosphorylation in platelets were carried out as described above. Lysosphingolipids inhibited phorbol dibutyrate binding to human platelets at concentrations in the 10-50 μM range. Inhibition of 40 kDa phosphorylation occurred over the same concentration range.

[5] = tested on: protein kinase C-induced phosphorylation of the 40 KDa polypeptide; assay: 40K (40 kDa) protein phosphorylation in human platelets; type: cell-based; conditions: concentrations less than 100 μM
Protocol: They were then suspended in modified Tyrode's buffer to a concentration of 2.5×10^8 platelets/ml.
^32 Pi at 0.2 mCi/ml was added to the platelet suspension and labelling was allowed to proceed for 75 minutes at 37° C., after which the platelets were pelleted at 600×g for 10 minutes and resuspended in Tyrode's buffer to the same concentration. They were then aliquoted in Eppendorf microfuge tubes and preincubated at 37° C. for 5 minutes with the varying concentrations of sphingosine. Platelets were then stimulated with either 5 μM dioctanoylglycerol (added as an ethanol solution with the final concentration of ethanol 0.5%), 10 μM TPA, or 1 unit/ml thrombin. The reactions were stopped after 30 seconds by the addition of an equal volume of 2× sample buffer, and the samples were then boiled for 3 minutes. […] Gels were subsequently fixed in water/methanol/acetic acid (60:30:10), dried, and autoradiographed.

[6] = biological target: protein kinase C; assay: Phorbol-dibutyrate binding to protein kinase C, mixed micellar assay (Table VI); conditions: Triton X-100 mixed micelles, 20 mol % phosphatidylserine
Protocol: as §1

[7] = oxidative burst, PMA activation
[8] = Homo sapiens, Neutrophil, oxidative burst, PMA activation

Compound: 3-amino-3-hydroxy-3-phenyl-propanol [reference compound]
- IC50 [1, 7]: > 100 µM

Compound: CCCCCCCCCCCCCCC[C@H](O)[C@@H](N)CO (relative stereo) [threo-Sphinganine]
- IC50 [1, 8]: 24 µM
- times less effective than erythro-sphinganine [1, 7]: 3-4 times
- inhibition of protein kinase C (specificity) [2]: inhibitors

Compound: NC(CO)C(O)c1ccccc1 (stereo not shown) [1,3-dihydroxy-2-amino-3-phenylpropane]
- inhibition of PMA-induced attachment [3]: did not inhibit
- inhibition of protein kinase C (specificity) [2]: not to be inhibitors
- inhibition of protein kinase C (specificity) ([2]; listed as 1,3-dihydroxy-2-amino-3 phenylpropane): without effect

Compound: CCCCCCCCCCCCCCCC(=O)C(N)CO (stereo not shown) [3-ketosphinganine]
- inhibition of protein kinase C (specificity) [2]: inhibitors

Compound: CCCCC/C=C\C/C=C\C/C=C\C/C=C\CCCC(=O)O [Arachidonate, reference compound]
- RATE of oxygen consumption, NO SPHINGANINE [1]: 4.2 nmols O2 consumed/min/10^6 cells

Compound: CCCCCCCCCCCCCCCC[N+](C)(C)C.[Br-] [CTAB, cetyl trimethylammonium bromide]
- IC50 [1, 8]: > 100 µM
- inhibition of protein kinase C (specificity) ([2]; listed as cetyl triethylammonium bromide): inactive; also recorded: not to be inhibitors

Compound: CCCCCCCC(=O)OCC(CO)OC(=O)CCCCCCC (stereo not shown) [Dioctanoyl Glycerol, 1,2-dioctanoylglycerol, reference compound]
- RATE of oxygen consumption, NO SPHINGANINE [1]: 6.1 nmols O2 consumed/min/10^6 cells

Compound: CCCCCCCCCCCCCCC[C@@H](O)[C@H](CO)NC(C)=O [N-acetylsphinganine, reference compound]
- inhibition of PMA-induced attachment ([3]; at up to 500 μM): not inhibitory
- IC50 [1, 8]: > 100 µM

Compound: CCCCCCCCCCCCC/C=C/[C@@H](O)[C@H](CO)NC(C)=O [N-acetylsphingosine]
- inhibition of protein kinase C (specificity) [2]: without effect; also recorded: not to be inhibitors

Compound: CCCCCCCCCCCCCCCC(=O)NC(CO)C(O)CCCCCCCCCCCCCCC (stereo not shown) [N-palmitoyldihydrosphingosine, reference compound]
- inhibition of PMA-induced attachment [3]: not inhibitory

Compound: CCCCCCCCN [Octylamine, reference compound]
- inhibition of PMA-induced attachment [3]: did not inhibit
- IC50 [1, 8]: 300 µM
- inhibition of protein kinase C (specificity) [2]: did not inhibit

Compound: CCCCCCCCCCCCCCCCCCN [Stearylamine, reference compound]
- IC50 ([3]; Homo sapiens, HL-60, read-out: 50% inhibition of PMA-induced attachment): 10 µM
- IC50 [1, 8]: 25 µM
- inhibition of protein kinase C (specificity) [2]: nearly as effective as sphingosine

Compound: O[C@H]1[C@H]2[C@H](O)CCCN2C[C@H]1O [Swainsonine]
- inhibition of protein kinase C (specificity) [2]: not an inhibitor

Compound: CCCCCCCCCCCCC/C=C/[C@@H](O)[C@@H](N)CO[C@@H]1O[C@H](CO)[C@@H](O[C@@H]2O[C@H](CO)[C@H](O[C@H]3O[C@H](CO)[C@H](O)[C@H](O)[C@H]3O)[C@H](O)[C@H]2O)[C@H](O)[C@H]1O [globotriosylsphingosine]
- Inhibition of Protein Kinase C, concentration giving 50% inhibition, (mol %) [4]: 4.2 mol %
- IC50 [4]: 180 µM

Compound: CCCCCCCCCCCCC/C=C/[C@@H](O)[C@H](CO[C@@H]1O[C@H](CO)[C@H](O)[C@H](O)[C@H]1O)NC(C)=O [reference compound]
- inhibition of protein kinase C activity [4]: None of these N-acetyl derivatives inhibited
- effect on 40 kDa phosphorylation in platelets [5]: did not affect

Compound: CCCCCCCCCCCCC/C=C/[C@@H](O)[C@H](COP(=O)([O-])OCC[N+](C)(C)C)NC(C)=O [reference compound]
- inhibition of protein kinase C activity [4]: None of these N-acetyl derivatives inhibited
- effect on 40 kDa phosphorylation in platelets [5]: did not affect

Compound: CCCCCCCCCCCCC/C=C/[C@@H](O)[C@@H](N)COP(=O)([O-])OCC[N+](C)(C)C [sphingosylphosphorylcholine]
- Inhibition of Protein Kinase C, concentration giving 50% inhibition, (mol %) [4]: 2.8 mol %
- IC50 [4]: 120 µM
- Inhibition of [3H]PDBu Binding to Protein Kinase, (mol %) [6]: 11.6 mol %
- IC50 ([6]; read-out: Inhibition of [3H]PDBu Binding to Protein Kinase): 500 µM

Compound: sphingomyelin [reference compound]
- inhibition of protein kinase C activity [4]: None of the parent compounds inhibited
